Assay results reported in BindingDB's records for doi:10.1021/ml400144e (Riken, 2013).

Target: T1, NF-kappa-B inhibitor alpha (Homo sapiens, UniProt P25963)
T1 sequence (P25963 whole entry): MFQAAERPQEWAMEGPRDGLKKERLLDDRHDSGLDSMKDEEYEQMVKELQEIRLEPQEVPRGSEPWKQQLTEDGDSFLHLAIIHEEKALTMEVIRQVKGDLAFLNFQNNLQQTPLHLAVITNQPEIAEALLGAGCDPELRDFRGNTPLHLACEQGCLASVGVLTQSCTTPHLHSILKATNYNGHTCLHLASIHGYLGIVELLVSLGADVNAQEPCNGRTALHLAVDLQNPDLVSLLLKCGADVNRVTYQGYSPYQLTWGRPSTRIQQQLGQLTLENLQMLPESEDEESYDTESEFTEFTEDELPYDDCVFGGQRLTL
Experiment: Inhibition of TNFalpha-induced IkappaBalpha (unknown origin) phosphorylation expressed in human HeLa cells pretreated 30 mins before TNFalpha addition measured up to 120 mins by ELISA in presence of proteasome inhibitor MG-132

Row | SMILES | IC50
1 | C[C@]12C(=O)C=CCC1=CC[C@@H]1[C@@H]2CC[C@]2(O)C(=O)O[C@@]3(C)[C@H]4C[C@]5(C)[C@@H](CO[C@@]16O[C@@]32[C@H]5C6=O)C(=O)O4 [NSC-287088] | 37.5 µM
2 | CC1=C(C)C(=O)O[C@@H]([C@](C)(O)[C@]2(O)CC[C@@]3(O)[C@@H]4CC=C5CC=CC(=O)[C@]5(C)[C@H]4CC[C@]23C)C1 [WITHANOLIDE F] | > 50 µM
3 | C[C@@]12C[C@H]3OC(=O)[C@]1(O)CO[C@]14O[C@@]5([C@H]2C1=O)[C@@]3(C)OC(=O)[C@@]5(O)CC[C@H]1[C@H]4C[C@@H]2O[C@@]23CC=CC(=O)[C@]13C [25-HYDROXY PHYSALIN J] | > 50 µM
4 | CC1=C(C)C(=O)O[C@@H]([C@](C)(O)[C@H]2CC[C@@]3(O)[C@@H]4CC=C5CC=CC(=O)[C@]5(C)[C@H]4CC[C@]23C)C1 | > 50 µM
5 | C[C@@]12C[C@H]3OC(=O)[C@]1(O)CO[C@]14O[C@@]5([C@H]2C1=O)[C@@]3(C)OC(=O)[C@@]5(O)CC[C@H]1[C@H]4C[C@H]2O[C@]23CC=CC(=O)[C@]13C [25-HYDROXY PHYSALIN F] | 30.1 µM
6 | CC1=C(C)C(=O)O[C@@H]([C@](C)(O)[C@]2(O)CC[C@@]3(O)[C@@H]4C[C@H]5O[C@]56CC=CC(=O)[C@]6(C)[C@H]4CC[C@]23C)C1 [WITHANOLIDE E] | 18 µM
7 | C[C@@H]1C(=O)O[C@@H]2C[C@@]1(C)[C@@H]1C(=O)[C@]3(O)O[C@]14[C@@]2(C)OC(=O)[C@@]4(O)CC[C@H]1[C@H]3[C@H](O)C=C2CC=CC(=O)[C@@]21C [PHYSALIN O] | > 50 µM
8 | C=C1C(=O)O[C@@H]2C[C@@]1(C)[C@@H]1C(=O)[C@]3(O)O[C@]14[C@@]2(C)OC(=O)[C@@]4(O)CC[C@H]1[C@H]3CC=C2CC=CC(=O)[C@@]21C | 26.2 µM
9 | C[C@]12C(=O)C=CCC1=CC[C@@H]1[C@@H]2CC[C@]2(O)C(=O)O[C@@]3(C)[C@H]4C[C@@](C)([C@@H]5C(=O)[C@]1(O)O[C@@]532)[C@](C)(O)C(=O)O4 | > 50 µM
10 | C[C@]12C(=O)C=CCC1=C[C@@H](O)[C@@H]1[C@@H]2CC[C@@]2(O)C(=O)O[C@@]3(C)[C@H]4C[C@]5(C)[C@@H](CO[C@@]16O[C@]23[C@H]5C6=O)C(=O)O4 | > 50 µM
11 | C[C@@]12C[C@H]3OC(=O)[C@@H]1CO[C@]14O[C@]5([C@H]2C1=O)[C@@](O)(CC[C@H]1[C@H]4C[C@H]2O[C@]24CC=CC(=O)[C@]14C)C(=O)O[C@@]35C [PHYSALIN F] | 27.1 µM
12 | CC1=C(C)C(=O)O[C@@H]([C@](C)(O)C2=CC[C@@]3(O)[C@@H]4CC=C5CC=CC(=O)[C@]5(C)[C@H]4CC[C@]23C)C1 | > 50 µM
13 | C[C@H]1C(=O)OC[C@H]1C[C@@H](O)[C@](C)(O)[C@]1(O)CC[C@@]2(O)[C@@H]3CC=C4CC=CC(=O)[C@]4(C)[C@H]3CC[C@]12C | > 50 µM
14 | C=C1C(=O)O[C@@H]2C[C@@]1(C)[C@@H]1C(=O)[C@]3(O)O[C@]14[C@@]2(C)OC(=O)[C@@]4(O)CC[C@H]1[C@H]3[C@H](O)C=C2CC=CC(=O)[C@@]21C [PHYSALIN A] | > 50 µM
15 | C[C@H]1C(=O)OC[C@H]1C[C@@H](O)[C@](C)(O)[C@@]1(O)CC[C@@]2(O)[C@@H]3CC=C4CC=CC(=O)[C@]4(C)[C@H]3CC[C@]12C | > 50 µM
16 | C[C@@]12C[C@H]3OC(=O)[C@@H]1CO[C@@]14O[C@]5(C2C1=O)[C@@](O)(CC[C@H]1[C@H]4C[C@@H]2O[C@@]24CC=CC(=O)[C@]14C)C(=O)O[C@@]35C [PHYSALIN J] | > 50 µM
